Source: patent US12448392B2, “Spiropiperidine derivatives” (89BIO LTD, priority 2016, dated 2025)
Counter-ions that a name gives are not always drawn. Like-named read-outs stand apart in the source and are kept apart here.

Molecular target: T1, recombinant human baculovirus-expressed GST-tagged FASN (Homo sapiens, UniProt P49327)
T1 construct: GST
Assay: biochemical

[1] = 5 nM FASN, 150 μM NADPH, 10 μM acetyl-CoA, 25 μM malonyl-CoA, 90 minutes incubation, read-out: IC50 data for Compounds of Formula I, Activity

T1 sequence (P49327 whole entry): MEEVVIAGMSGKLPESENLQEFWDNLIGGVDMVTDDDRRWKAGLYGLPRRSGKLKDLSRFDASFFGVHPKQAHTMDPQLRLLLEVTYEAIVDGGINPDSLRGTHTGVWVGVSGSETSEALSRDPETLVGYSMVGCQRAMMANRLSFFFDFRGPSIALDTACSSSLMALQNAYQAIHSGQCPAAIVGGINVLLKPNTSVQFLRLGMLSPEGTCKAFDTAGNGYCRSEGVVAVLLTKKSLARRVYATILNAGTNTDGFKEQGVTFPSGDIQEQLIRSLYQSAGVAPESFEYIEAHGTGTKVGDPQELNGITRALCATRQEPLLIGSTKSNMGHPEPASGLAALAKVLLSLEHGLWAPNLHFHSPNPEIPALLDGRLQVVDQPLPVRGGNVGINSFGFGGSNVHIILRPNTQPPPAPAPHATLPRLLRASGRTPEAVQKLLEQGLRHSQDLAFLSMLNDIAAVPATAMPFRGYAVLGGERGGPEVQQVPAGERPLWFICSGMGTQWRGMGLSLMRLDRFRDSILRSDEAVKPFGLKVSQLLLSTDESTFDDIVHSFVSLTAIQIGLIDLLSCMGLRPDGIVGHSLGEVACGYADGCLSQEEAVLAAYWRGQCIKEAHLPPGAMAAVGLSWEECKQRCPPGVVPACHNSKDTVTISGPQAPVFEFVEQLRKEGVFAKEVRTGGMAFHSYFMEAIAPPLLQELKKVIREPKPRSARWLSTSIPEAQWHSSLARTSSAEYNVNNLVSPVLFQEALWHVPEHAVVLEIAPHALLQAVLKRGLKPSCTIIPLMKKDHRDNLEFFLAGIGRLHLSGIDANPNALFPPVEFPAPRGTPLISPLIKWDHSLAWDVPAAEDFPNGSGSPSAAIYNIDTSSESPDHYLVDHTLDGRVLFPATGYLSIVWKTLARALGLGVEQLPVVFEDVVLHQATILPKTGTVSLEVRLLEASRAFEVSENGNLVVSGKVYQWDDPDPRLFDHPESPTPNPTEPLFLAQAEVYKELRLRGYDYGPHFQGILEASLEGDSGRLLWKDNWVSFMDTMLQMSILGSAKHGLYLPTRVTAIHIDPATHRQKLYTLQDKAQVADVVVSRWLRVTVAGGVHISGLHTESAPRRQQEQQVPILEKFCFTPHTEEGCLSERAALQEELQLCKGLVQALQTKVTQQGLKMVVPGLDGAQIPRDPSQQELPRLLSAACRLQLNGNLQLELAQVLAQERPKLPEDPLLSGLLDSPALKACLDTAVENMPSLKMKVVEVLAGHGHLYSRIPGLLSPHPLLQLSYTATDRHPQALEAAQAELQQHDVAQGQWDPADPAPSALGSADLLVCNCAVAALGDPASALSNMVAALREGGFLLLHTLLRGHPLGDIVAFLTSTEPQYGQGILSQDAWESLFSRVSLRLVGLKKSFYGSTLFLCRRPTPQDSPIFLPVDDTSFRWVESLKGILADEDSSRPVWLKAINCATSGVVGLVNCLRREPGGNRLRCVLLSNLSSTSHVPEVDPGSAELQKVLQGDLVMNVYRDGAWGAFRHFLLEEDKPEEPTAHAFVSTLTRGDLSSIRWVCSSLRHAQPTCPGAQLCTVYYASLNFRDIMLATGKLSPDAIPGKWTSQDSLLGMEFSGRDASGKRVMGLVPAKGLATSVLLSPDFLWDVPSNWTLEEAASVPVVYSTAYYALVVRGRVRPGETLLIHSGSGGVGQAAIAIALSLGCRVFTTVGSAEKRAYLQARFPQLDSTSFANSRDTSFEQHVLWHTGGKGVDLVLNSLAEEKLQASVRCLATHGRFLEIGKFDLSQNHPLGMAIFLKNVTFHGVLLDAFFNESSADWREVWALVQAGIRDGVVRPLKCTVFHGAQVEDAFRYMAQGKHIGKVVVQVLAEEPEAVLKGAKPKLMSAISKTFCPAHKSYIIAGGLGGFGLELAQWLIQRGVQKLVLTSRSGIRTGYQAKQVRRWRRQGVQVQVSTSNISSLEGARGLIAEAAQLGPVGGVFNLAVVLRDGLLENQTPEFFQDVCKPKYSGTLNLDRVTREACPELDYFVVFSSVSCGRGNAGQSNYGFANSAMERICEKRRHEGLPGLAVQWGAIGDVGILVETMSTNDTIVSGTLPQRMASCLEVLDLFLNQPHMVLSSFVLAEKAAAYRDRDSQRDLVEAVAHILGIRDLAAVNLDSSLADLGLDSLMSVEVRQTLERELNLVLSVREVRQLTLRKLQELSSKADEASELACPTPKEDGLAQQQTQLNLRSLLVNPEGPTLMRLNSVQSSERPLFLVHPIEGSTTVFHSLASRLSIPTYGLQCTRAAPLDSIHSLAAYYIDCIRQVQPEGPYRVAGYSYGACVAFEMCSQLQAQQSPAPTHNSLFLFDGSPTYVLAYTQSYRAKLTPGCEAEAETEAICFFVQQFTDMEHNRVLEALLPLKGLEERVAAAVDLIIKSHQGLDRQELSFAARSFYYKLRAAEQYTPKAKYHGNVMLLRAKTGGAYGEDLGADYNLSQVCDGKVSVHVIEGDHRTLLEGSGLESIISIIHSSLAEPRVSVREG

Row | SMILES | IC50 [1] [nM] | IC50 [nM]
1 | CCONC(=O)N1CCC2(CCc3cc(-c4ccc5nccn5c4C)ccc3O2)CC1 [Example 107, N-Ethoxy-6-(5-methylimidazo[1,2-a]pyridin-6-yl)spiro[chromane-2,4′-piperidine]-1′-carboxamide] | 1 to 99 | –
2 | Cc1c(-c2ccc3c(c2)CCOC2(CCN(C(N)=O)CC2)O3)ccc2cccnc12 [Example 77, 7-(8-methyl-7-quinolyl)spiro[4,5-dihydro-1,3-benzodioxepine-2,4′-piperidine]-1′-carboxamide] | – | 100 to 999
3 | CONC(=O)N1CCC2(CC1)Cc1cc(-c3ccc4ccnn4c3C)ccc1O2 [Example 170, N-Methoxy-5-(7-methylpyrazolo[1,5-a]pyridin-6-yl)spiro[3H-benzofuran-2,4′-piperidine]-1′-carboxamide] | 1000 to 10000 | –
4 | Cc1c(-c2ccc3c(c2)COC2(CCN(C(=O)NC(C)C)CC2)O3)ccc2cccnc12 [Example 119, N-Isopropyl-6-(8-methyl-7-quinolyl)spiro[4H-1,3-benzodioxine-2,4′-piperidine]-1′-carboxamide] | – | 1 to 99
5 | Cc1c(-c2ccc3c(c2)CCC2(CCN(C(=O)[C@H]4CCCO4)CC2)O3)ccc2nccn12 [Example 28, [6-(5-Methylimidazo[1,2-a]pyridin-6-yl)spiro[chromane-2,4′-piperidine]-1′-yl]-[(2R)-tetrahydrofuran-2-yl]methanone] | 1 to 99 | –
6 | Cc1c(-c2ccc3c(c2)COC2(CCN(C(N)=O)CC2)O3)ccc2ccnn12 [Example 127, 6-(7-Methylpyrazolo[1,5-a]pyridin-6-yl)spiro[4H-1,3-benzodioxine-2,4′-piperidine]-1′-carboxamide] | – | 100 to 999
7 | CC(C)C(=O)N1CCC2(CC1)OCc1cc(-c3cnc4ccccc4c3)ccc1O2 [Example 34, 2-Methyl-1-[6-(3-quinolyl)spiro[4H-1,3-benzodioxine-2,4′-piperidine]-1′-yl]propan-1-one] | – | 1 to 99
8 | Cc1c(-c2ccc3cccnc3c2C)ccc2c1CCC1(CCN(C(N)=O)CC1)O2 [Example 240, 5-Methyl-6-(8-methyl-7-quinolyl)spiro[chromane-2,4′-piperidine]-1′-carboxamide] | 1000 to 10000 | –
9 | Cc1nccc2cc(-c3ccc4c(c3)CCC3(CCN(C(=O)NOC(C)C)CC3)O4)ccc12 [Example 180, N-Isopropoxy-6-(1-methyl-6-isoquinolyl)spiro[chromane-2,4′-piperidine]-1′-carboxamide] | 1 to 99 | –
10 | COc1c(-c2ccc3c(c2)COC2(CCN(C(=O)[C@H]4CCCO4)CC2)O3)ccc2cccnc12 [Example 56, [6-(8-Methoxy-7-quinolyl)spiro[4H-1,3-benzodioxine-2,4′-piperidine]-1′-yl]-[(2R)-tetrahydrofuran-2-yl]methanone] | – | 1 to 99
11 | CCNC(=O)N1CCC2(CCc3cc(-c4ccc5cnc(C)cc5c4)ccc3O2)CC1 [Example 208, N-Ethyl-6-(3-methyl-6-isoquinolyl)spiro[chromane-2,4′-piperidine]-1′-carboxamide] | 100 to 999 | –
12 | Cc1nccc2cc(-c3ccc4c(c3)COC3(CCN(C(N)=O)CC3)O4)ccc12 [Example 194, 6-(1-Methyl-6-isoquinolyl)spiro[4H-1,3-benzodioxine-2,4′-piperidine]-1′-carboxamide] | – | 100 to 999
13 | CCC(=O)N1CCC2(CC1)OCc1cc(-c3cnc4cccnc4c3)ccc1O2 [Example 36, 1-[6-(1,5-Naphthyridin-3-yl)spiro[4H-1,3-benzodioxine-2,4′-piperidine]-1′-yl]propan-1-one] | – | 1000 to 10000
14 | O=C([C@H]1CCCO1)N1CCC2(CCc3cc(-c4ccncc4)ccc3O2)CC1 [Example 228, [6-(4-Pyridyl)spiro[chromane-2,4′-piperidine]-1′-yl]-[(2R)-tetrahydrofuran-2-yl]methanone, HCl] | 100 to 999 | –
15 | CONC(=O)N1CCC2(CCc3cc(-c4ccc5cnc(C)cc5c4)ccc3O2)CC1 [Example 209, N-Methoxy-6-(3-methyl-6-isoquinolyl)spiro[chromane-2,4′-piperidine]-1′-carboxamide] | 1 to 99 | –
16 | CONC(=O)N1CCC2(CCc3cc(-c4ccc5c(C)nccc5c4)cc(F)c3O2)CC1 [Example 242] | 1 to 99 | –
17 | O=C(NOC1CCCCO1)N1CCC2(CCc3cc(-c4ccc5cccnc5c4Cl)ccc3O2)CC1 (centres unmarked) [Example 65, 6-(8-Chloro-7-quinolyl)-N-tetrahydropyran-2-yloxy-spiro[chromane-2,4′-piperidine]-1′-carboxamide] | 1 to 99 | –
18 | NC(=O)N1CCC2(CCc3cc(-c4cc5ccccc5cn4)ccc3O2)CC1 [Example 143, 6-(3-Isoquinolyl)spiro[chromane-2,4′-piperidine]-1′-carboxamide] | 1000 to 10000 | –
19 | CCC(=O)N1CCC2(CC1)CC(=O)c1cc(-c3cnc4ccccc4c3)ccc1O2 [Example 38, 1′-Propanoyl-6-(3-quinolyl)spiro[chromane-2,4′-piperidine]-4-one] | 100 to 999 | –
20 | Cc1cc2c(cc1-c1ccc3cccnc3c1C)CCC1(CCN(C(N)=O)CC1)O2 [Example 244, 7-Methyl-6-(8-methyl-7-quinolyl)spiro[chromane-2,4′-piperidine]-1′-carboxamide] | 1000 to 10000 | –
21 | Cc1c(-c2ccc3c(c2)CCC2(CCN(C(N)=O)CC2)O3)ccc2nccn12 [Example 109, 6-(5-Methylimidazo[1,2-a]pyridin-6-yl)spiro[chromane-2,4′-piperidine]-1′-carboxamide] | 100 to 999 | –
22 | Cc1c(-c2ccc3c(c2)CCC2(CCN(C(N)=O)CC2)O3)ccc2ccc(=O)[nH]c12 [Example 172, 6-(8-Methyl-2-oxo-1H-quinolin-7-yl)spiro[chromane-2,4′-piperidine]-1′-carboxamide] | 1000 to 10000 | –
23 | NC(=O)N1CCC2(CC1)OCc1cc(-c3cc4ccccc4cn3)ccc1O2 [Example 142, 6-(3-Isoquinolyl)spiro[4H-1,3-benzodioxine-2,4′-piperidine]-1′-carboxamide] | – | 1000 to 10000
24 | O=C([C@H]1CCCO1)N1CCC2(CC1)OCc1cc(-c3ccccn3)ccc1O2 [Example 220, [6-(2-Pyridyl)spiro[4H-1,3-benzodioxine-2,4′-piperidine]-1′-yl]-[(2R)-tetrahydrofuran-2-yl]methanone, HCl] | – | 100 to 999
25 | CCC(=O)N1CCC2(CCc3cc(-c4cccnc4)ccc3O2)CC1 [Example 221, 1-[6-(3-Pyridyl)spiro[chromane-2,4′-piperidine]-1′-yl]propan-1-one, HCl] | 1000 to 10000 | –
26 | O=C([C@H]1CCCO1)N1CCC2(CC1)OCc1cc(-c3ccncc3)ccc1O2 [Example 231, [6-(4-Pyridyl)spiro[4H-1,3-benzodioxine-2,4′-piperidine]-1′-yl]-[(2R)-tetrahydrofuran-2-yl]methanone, HCl] | – | 100 to 999
27 | CCONC(=O)N1CCC2(CCc3cc(-c4ccc5cccnc5c4OC)ccc3O2)CC1 [Example 211, N-Ethoxy-6-(8-methoxy-7-quinolyl)spiro[chromane-2,4′-piperidine]-1′-carboxamide] | 1 to 99 | –
28 | Cn1cnc2cc(-c3ccc4c(c3)COC3(CCN(C(N)=O)CC3)O4)ccc21 [Example 82, 6-(1-Methylbenzimidazol-5-yl)spiro[4H-1,3-benzodioxine-2,4′-piperidine]-1′-carboxamide] | – | 100 to 999
29 | CCNC(=O)N1CCC2(CC1)OCc1cc(-c3ccc4cccnc4c3C)ccc1O2 [Example 117, N-Ethyl-6-(8-methyl-7-quinolyl)spiro[4H-1,3-benzodioxine-2,4′-piperidine]-1′-carboxamide] | – | 1 to 99
